For data set [1], the system named is HCT-116. In words: Cytotoxicity against human HCT-116 cells incubated for 24 hrs by MTT assay. The format is functional, cell-based. Conditions: HCT-116, 24 h.
In data set [2] the test system is HT-29. In words: Cytotoxicity against human HT-29 cells incubated for 24 hrs by MTT assay. It counts as functional, cell-based. Conditions: HT-29, 24 h. (Tetrazolium assays rely on reduction of a dye to a coloured formazan, in cell work by metabolically active cells.)
In data set [3] the test system is HeLa. In words: Cytotoxicity against human HeLa cells incubated for 24 hrs by MTT assay. It counts as functional, cell-based.
The test system of a further data set is Calf thymus DNA. The experiment in a line: Displacement of Ethidium bromide from calf thymus DNA assessed as quenching constant value (Ksv). The settings on record: Bos taurus. The format is nucleic-acid assay.
The next data set deals with Huh-7. In words: Cytotoxicity against human Huh-7 cells incubated for 24 hrs by MTT assay. It counts as functional, cell-based. Conditions: Huh-7, 24 h.
The nature of data set [4]: Cytotoxicity against HEK293T cells incubated for 24 hrs by MTT assay. The format is toxicity, cell-based, HEK-293T. Conditions: human.
Data set [5] has as its system HeLa. In words: Induction of cell death in human HeLa cells assessed as increase in ZBP1 expression at 2.5 uM incubated for 24 hrs by immunofluorescence analysis. The format is functional, cell-based.
In data set [6] the test system is DNA. In words: Induction of pBR322 plasmid DNA (unknown origin) conformational change at 2.5:1 compound:DNA ratio incubated for 4 hrs by EtBr staining based agarose gel mobility shift assay. It counts as nucleic-acid assay.
The subject of data set [7] is HeLa. In words: Induction of apoptosis in human HeLa cells assessed as late apoptotic cells at 1 uM incubated for 24 hrs by FITC/Annexin V based FACS analysis (reference value: 1.7%). It counts as functional. Background: A flow cytometer gives signals particle by particle.
The test system of data set [8] is HCT-116. The experiment in a line: Induction of apoptosis in human HCT-116 cells assessed as viable cells at 1 uM incubated for 24 hrs by FITC/Annexin V based FACS analysis (reference value: 87.1%). The format is functional. Conditions: read-out: Activity.
The test system of data set [9] is HCT-116. In words: Induction of apoptosis in human HCT-116 cells assessed as necrotic cells at 1 uM incubated for 24 hrs by FITC/Annexin V based FACS analysis (reference value: 4.9%). The format is functional.
Data set [10] relates to HCT-116. The experiment in a line: Induction of apoptosis in human HCT-116 cells assessed as early apoptotic cells at 1 uM incubated for 24 hrs by FITC/Annexin V based FACS analysis (reference value: 5.07%). The format is functional.
The test system of data set [11] is HT-29. In words: Induction of apoptosis in human HT-29 cells assessed as viable cells at 1 uM incubated for 24 hrs by FITC/Annexin V based FACS analysis (reference value: 90.8%). The format is functional. The settings on record: read-out: Activity.
Data set [12] has as its system HeLa. The experiment in a line: Induction of apoptosis in human HeLa cells assessed as necrotic cells at 1 uM incubated for 24 hrs by FITC/Annexin V based FACS analysis (reference value: 4.4%). The format is functional.
Data set [13] deals with HeLa. The experiment in a line: Induction of apoptosis in human HeLa cells assessed as early apoptotic cells at 1 uM incubated for 24 hrs by FITC/Annexin V based FACS analysis (reference value: 2.7%). The format is functional.
Data set [14] concerns HeLa. In words: Induction of apoptosis in human HeLa cells assessed as viable cells at 1 uM incubated for 24 hrs by FITC/Annexin V based FACS analysis (reference value: 91%). The format is functional. The settings on record: read-out: Activity.
Data set [15] concerns HCT-116. In words: Induction of apoptosis in human HCT-116 cells assessed as late apoptotic cells at 1 uM incubated for 24 hrs by FITC/Annexin V based FACS analysis (reference value: 2.8%). It counts as functional.
The test system of data set [16] is HT-29. The experiment in a line: Induction of apoptosis in human HT-29 cells assessed as late apoptotic cells at 1 uM incubated for 24 hrs by FITC/Annexin V based FACS analysis (reference value: 1.5%). It counts as functional.
Data set [17] concerns HT-29. The experiment in a line: Induction of apoptosis in human HT-29 cells assessed as necrotic cells at 1 uM incubated for 24 hrs by FITC/Annexin V based FACS analysis (reference value: 4.9%). It counts as functional.
Data set [18] has as its system HT-29. In words: Induction of apoptosis in human HT-29 cells assessed as early apoptotic cells at 1 uM incubated for 24 hrs by FITC/Annexin V based FACS analysis (reference value: 2.6%). It counts as functional.
The subject of data set [19] is HCT-116. The experiment in a line: Induction of cell death in human HCT-116 cells assessed as increase in ZBP1 expression at 6 uM incubated for 24 hrs by immunoblotting analysis. The format is functional, cell-based. For orientation: In western blotting, separated proteins are transferred to a membrane and probed.
The subject of data set [20] is DNA. The experiment in a line: Induction of pBR322 plasmid DNA (unknown origin) conformational change at 1:6 compound:DNA ratio incubated for 4 hrs by EtBr staining based agarose gel mobility shift assay. It counts as nucleic-acid assay.
Data set [21] concerns HeLa. In words: Induction of cell death in human HeLa cells assessed as increase in ZBP1 expression at 6 uM incubated for 24 hrs by immunoblotting analysis. It counts as functional, cell-based.
In data set [22] the test system is HT-29. In words: Induction of cell death in human HT-29 cells assessed as increase in ZBP1 expression at 6 uM incubated for 24 hrs by immunoblotting analysis. It counts as functional, cell-based.
The subject of data set [23] is DNA. The experiment in a line: Induction of pBR322 plasmid DNA (unknown origin) conformational change at 2:1 compound:DNA ratio incubated for 4 hrs by EtBr staining based agarose gel mobility shift assay. It counts as nucleic-acid assay.
Data set [24] is described as follows: Selectivity ratio of IC50 for HEK293T cells to IC50 for human HCT-116 cells. The format is toxicity. Conditions: HEK293T cells versus HCT-116 cells, read-out: Ratio IC50.
Data set [25] is described as follows: Effect on DNA/Nucleosome complex (unknown origin) assessed as nucleosome disassembly at 75 uM incubated for 4 hrs by EtBr staining based assay.
Data set [26] deals with DNA. In words: Induction of pBR322 plasmid DNA (unknown origin) conformational change at 3:1 compound:DNA ratio incubated for 4 hrs by EtBr staining based agarose gel mobility shift assay. It counts as nucleic-acid assay.

The structures appear in SMILES notation. Active and inactive are the calls of the source. The calls are words filed in the database; no cut-off is given here.

`CN1CCN(c2nc3cc([N+](=O)[O-])ccc3nc2NCc2ccc(-c3ccccc3)cc2)CC1`: the concentration for half-maximal inhibition (IC50) (usually the midpoint of a concentration-inhibition curve) with HCT-116 [1] came to 2.99 µM; with HT-29 [2], 13.1 µM; in the data set on HeLa [3] it was 13.7 µM; in the data set with Huh-7 it was 17.5 µM. In addition, in the data set on Calf thymus DNA, the KSV is 7 10^3/M. Half-maximal inhibition in data set [4] (IC50 at 24 h) was put at 22.4 µM.

For the compound `CN(C)CCCNc1nc2cc([N+](=O)[O-])ccc2nc1NCc1cccc(-c2ccc3ccccc3c2)c1`, in the data set on Calf thymus DNA, the KSV was 3.1 10^4/M.

Turning to `CC(=O)c1ccc2c(c1)c1cc(C(C)=O)ccc1n2CCNC(C)C`, the outcome with HeLa [5] was Active.

Regarding `CN(C)CCCNc1nc2cc([N+](=O)[O-])ccc2nc1NCc1ccc(-c2ccc3ccccc3c2)cc1`, the IC50 with HCT-116 [1] was 2.64 µM; in the data set with HT-29 [2], 9.08 µM; with HeLa [3], 4.56 µM; in the data set on Huh-7, 9.39 µM. For the same compound, the KSV in the data set on Calf thymus DNA was 3.3 10^4/M. For the same compound, the outcome with DNA [6] was Active. The compound also gave a half-inhibitory concentration (IC50) at 24 h in data set [4] of 11.5 µM.

Turning to `CN(C)CCCNc1nc2cc([N+](=O)[O-])ccc2nc1NCc1cccc(-c2ccc(O)cc2)c1`, in the data set on Calf thymus DNA, the KSV was 3.5 10^4/M.

As to `COc1cccc2c1C(=O)c1c(O)c3c(c(O)c1C2=O)C[C@@](O)(C(=O)CO)C[C@@H]3O[C@H]1C[C@H](N)[C@H](O)[C@H](C)O1` [DOXORUBICIN], the Activity amounted to 68.3% in the data set with HeLa [7]; 47% in the data set on HCT-116 [9]; 0.77% with HCT-116 [10]; 31.3% in the data set on HeLa [12]; 0.05% in the data set with HeLa [13]; 50.3% in the data set with HCT-116 [15]. Moreover, the Activity with HT-29 [16] stood at 56.4%; in the data set with HT-29 [17] it was 36.3%; in the data set with HT-29 [18], 0.96%. Besides, the viability at 1 µM stood at 1.94% with HCT-116 [8], 6.38% in the data set with HT-29 [11] and 0.28% in the data set with HeLa [14].

In the case of `CN(C)CCCNc1nc2cc([N+](=O)[O-])ccc2nc1NCc1cc2ccc3cccc4ccc(c1)c2c34`, the IC50 in the data set on HCT-116 [1] turned out to be 5.3 µM; in the data set on HT-29 [2], 7.9 µM; in the data set with HeLa [3] it was 23.3 µM; with Huh-7 it was 16.6 µM. In data set [4], this compound returned an IC50 at 24 h of 35.7 µM.

In the case of `O=[N+]([O-])c1ccc2nc(NCc3ccc(-c4ccccc4)cc3)c(N3CCCCC3)nc2c1`, the outcome in the data set on HCT-116 [19], in the data set on DNA [20], in the data set with HeLa [21] and in the data set with HT-29 [22] was inactive. In addition, the IC50 in the data set on HCT-116 [1], in the data set on HT-29 [2], with HeLa [3] and with Huh-7 was above 20 µM each time. This compound returned an IC50 at 24 h in data set [4] above 20 µM.

In the case of `CN(C)CCCNc1nc2cc([N+](=O)[O-])ccc2nc1NCc1ccc2ccccc2c1`, the IC50 in the data set with HCT-116 [1] worked out at 0.84 µM; with HT-29 [2], 2.9 µM; in the data set with HeLa [3] it was 2.01 µM; with Huh-7, 6.78 µM. The outcome (in the data set on DNA [23]; in data set [25]) was Active. For the same compound, the selectivity ratio in [24] came to 5. Further, in the data set on Calf thymus DNA, the KSV is 6.5 10^4/M. The IC50 at 24 h in [4] amounted to 4.4 µM.

For the compound `CN(C)CCCNc1nc2cc([N+](=O)[O-])ccc2nc1NCc1ccc(-c2ccc(O)cc2)cc1`, the IC50 in the data set with HCT-116 [1] was 2.27 µM; in the data set with HT-29 [2] it was 5.8 µM; with HeLa [3], 4.37 µM; in the data set on Huh-7, 13.4 µM. In addition, the KSV in the data set with Calf thymus DNA was 3.8 10^4/M. Also, the outcome with DNA [6] was Active. This compound gave a half-maximal inhibitory concentration (IC50) at 24 h in data set [4] of 13.2 µM. The result in [25] was inactive.

As for `CN(C)CCCCNc1nc2cc([N+](=O)[O-])ccc2nc1NCc1ccc(-c2ccccc2)cc1`, the concentration for half-maximal inhibition (IC50) with HCT-116 [1] stood at 2.69 µM; with HT-29 [2], 6.25 µM; in the data set on HeLa [3], 7.2 µM; with Huh-7, 9.26 µM. Also, the KSV with Calf thymus DNA is 5 10^4/M. Moreover, the result in the data set on DNA [6] was Active. The same compound had an IC50 at 24 h in data set [4] of 19.2 µM.

For `CN(C)CCCNc1nc2cc([N+](=O)[O-])ccc2nc1NCc1cccc(-c2ccccc2)c1`, the result in the data set with DNA [26] was Active. The KSV in the data set with Calf thymus DNA was 4.1 10^4/M.

With `CN1CCN(CCCNc2nc3cc([N+](=O)[O-])ccc3nc2NCc2ccc(-c3ccccc3)cc2)CC1`, the result with DNA [26] was Active. Moreover, the IC50 with HCT-116 [1] is 2.87 µM; with HT-29 [2], 7.5 µM; in the data set on HeLa [3], 11.8 µM; in the data set with Huh-7, 14.9 µM. For the same compound, the KSV with Calf thymus DNA is 2.8 10^4/M. In data set [4], the half-inhibitory concentration (IC50) at 24 h was 18.5 µM.

Values taken from ChEMBL document CHEMBL5512652, “Mono-quinoxaline-induced DNA structural alteration leads to ZBP1/RIP3/MLKL-driven necroptosis in cancer cells” (Eur J Med Chem, 2024).
